In patent US8901315B2, “Thienopyrazole derivative having PDE7 inhibitory activity” (Daiichi Sankyo Company, Limited, priority 2004, dated 2014):
Structures can show the parent of a compound that is named as a salt. Where two headings read alike, the source gives them in different places.

Legend:
[1] = biological target: PDE 7 (phosphodiesterase VII) (Homo sapiens (Human), UniProt Q13946); test: PDE 7 inhibiting effect (3H-cAMP hydrolysis, PDE 7 active fraction from MOLT-4 cells); assay type: biochemical; details: read-out: PDE7 IC50
Procedure: Methods for Evaluating the PDE 7 Inhibiting Effect
The PDE 7 (phosphodiesterase VII) inhibiting effect of the compounds of the present invention was performed by the following method, which was modified assay method described in Biochemical. Pharmacol. 48(6), 1219-1223 (1994). • (1) The active fraction of PDE 7 (phosphodiesterase VII) was obtained. That is, MOLT-4 (obtainable from ATCC as ATCC No. CRL-1582), which was cell line of human acute lymphoblastic lymphoma T cells, was incubated in RPMI1640 culture medium containing 10% fetal bovine serum to obtain 5×10^8 MOLT-4 cells. The cells were collected by centrifugation and suspended with 10 mL of buffer solution A [25 mM of tris-HCl, 5 mM of 2-mercaptoethanol, 2 mM of benzamidine, 2 mM of EDTA, 0.1 mM of 4-(2-aminoethyl)benzenesulfonyl hydrochloride; pH 7.5], then homogenized by Polytron® homogenizer. The homogenate were centrifuged under 25,000×G for 10 minutes at 4° C. The supernatant was separated and thus obtained supernatant was further centrifuged under 100,000×G for 60 minutes at 4° C., and then filtrated with 0.2 μm filter to obtain the soluble fraction. • (2) The obtained soluble fraction was filled in equilibrium HiTrap Q column (5 mL×2) with buffer solution A, and phosphodiesterase fractions were eluted by 300 mL of buffer solution A with linear gradient from 0 to 0.8 M NaCl concentration. 5 mL each of 60 eluents were collected, and each eluents were examined for cyclic AMP metabolic activities of phosphodiesterase. […] After the reaction, suspension of Sephadex®-QAE in 10 mM of HEPES-Na (pH 7.0) was added to the reaction mixture, and the mixture was left at rest for 5 minutes.

[2] = biological target: PDE 4 (phosphodiesterase IV); test: PDE 4 inhibiting effect (3H-cAMP hydrolysis, PDE 4 active fraction from Balb/c mouse liver); assay type: biochemical; details: PDE 4 fraction from Balb/c mice liver, 0.064 μM cAMP, 2 hours at 25° C., read-out: PDE4 IC50
Procedure: Methods for Evaluating the PDE 4 Inhibiting Effect
The PDE 4 (phosphodiesterase IV) inhibiting effect of the compounds of the present invention was performed by the following method, which was modified assay method described in Biochemical. […] That is, the livers obtained from three Balb/c mice (male, 12 weeks: obtainable from CLEA Japan, Inc.) were suspended with 30 mL of buffer solution B [20 mM of bis-tris, 5 mM of 2-mercaptoethanol, 2 mM of benzamidine, 2 mM of EDTA, 0.1 mM of 4-(2-aminoethyl)benzenesulfonyl hydrochloride, 50 mM of sodium acetate; pH 6.5], then homogenized by Polytron® homogenizer. The homogenate were centrifuged under 25,000×G for 10 minutes at 4° C. The supernatant was separated and thus obtained supernatant was further centrifuged under 100,000×G for 60 minutes at 4° C., and then filtrated with 0.2 μm filter to obtain the soluble fraction. • (2) The obtained soluble fraction was filled in equilibrium DEAE sepharose column (1×10 cm) with buffer solution B, and phosphodiesterase fractions were eluted by 120 mL of buffer solution B with linear gradient from 0.05 to 1M sodium acetate concentration. 5 mL each of 24 eluents were collected, and each eluents were examined for cyclic AMP metabolic activities of phosphodiesterase. […] After the reaction, suspension of Sephadex®-QAE in 10 mM of HEPES-Na (pH 7.0) was added to the reaction mixture, and the mixture was left at rest for 5 minutes.

[3] = PDE 7 fraction from MOLT-4 cells, 0.064 μM cAMP, 10 μM rolipram, 2 hours at 25° C.
[4] = PDE 7 fraction from MOLT-4 cells, 0.064 μM cAMP, 10 μM rolipram, 2 hours at 25° C., methanesulfonate
[5] = PDE 7 fraction from MOLT-4 cells, 0.064 μM cAMP, 10 μM rolipram, 2 hours at 25° C., p-toluenesulfonate

Chain of PDE 7 (phosphodiesterase VII) (Q13946 whole entry): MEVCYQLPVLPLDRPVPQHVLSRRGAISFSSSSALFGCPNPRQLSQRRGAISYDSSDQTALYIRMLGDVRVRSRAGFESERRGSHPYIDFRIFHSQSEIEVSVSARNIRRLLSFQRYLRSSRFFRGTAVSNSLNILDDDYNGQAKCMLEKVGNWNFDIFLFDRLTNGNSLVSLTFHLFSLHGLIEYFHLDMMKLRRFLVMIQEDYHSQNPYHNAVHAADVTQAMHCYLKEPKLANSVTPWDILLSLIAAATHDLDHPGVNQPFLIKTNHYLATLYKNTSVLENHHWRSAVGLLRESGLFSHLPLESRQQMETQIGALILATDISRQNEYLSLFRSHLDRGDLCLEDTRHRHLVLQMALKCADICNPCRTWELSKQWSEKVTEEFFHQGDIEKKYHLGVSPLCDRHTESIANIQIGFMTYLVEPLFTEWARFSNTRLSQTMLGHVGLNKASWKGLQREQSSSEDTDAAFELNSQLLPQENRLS

Compound	IC50 [1, 3] [nM]	IC50 [2] [nM]	further results
Cc1nn(C2CCCCC2)c2sc(C(=O)Nc3ccc(C(=O)N4CCC(O)CC4)nc3)cc12 [Example 378, 1-Cyclohexyl-N-{6-[(4-hydroxy-1-piperidinyl)carbonyl]-3-pyridinyl}-3-methyl-1H-thieno[2,3-c]pyrazole-5-carboxamide]	44	2500	
Cc1nn(C2CCCCC2)c2sc(C(=O)Nc3ccc(CN4CCOCC4)cc3)cc12 [Example 199, 1-Cyclohexyl-3-methyl-N-[4-(4-morpholinylmethyl)phenyl]-1H-thieno[2,3-c]pyrazole-5-carboxamide fumarate]	56	5800	
Cc1nn(C2CCCCC2)c2sc(C(=O)Nc3cccc(S(=O)(=O)N4CCC(O)CC4)c3)cc12 [Example 264, 1-Cyclohexyl-N-{3-[(4-hydroxy-1-piperidinyl)sulfonyl]phenyl}-3-methyl-1H-thieno[2,3-c]pyrazole-5-carboxamide]	81	6300	
Cc1nn(C2CCCCC2)c2sc(C(=O)NC3CCN(C(=O)N(C)C)CC3)cc12 [Example 235, 1-Cyclohexyl-N-{1-[(dimethylamino)carbonyl]-4-piperidinyl}-3-methyl-1H-thieno[2,3-c]pyrazole-5-carboxamide]	17	2800	
Cc1nn(C2CCCCC2)c2sc(C(=O)N[C@H]3CC[C@H](CO)C3)cc12 [Example 257, 1-Cyclohexyl-N-[(1S,3S)-3-(hydroxymethyl)cyclopentyl]-3-methyl-1H-thieno[2,3-c]pyrazole-5-carboxamide]	68	8300	
Cc1nn(C2CCCCC2)c2sc(C(=O)Nc3ccc(S(=O)(=O)N4CCN(C)CC4)cc3)cc12 [Example 36, 1-Cyclohexyl-3-methy-N-{4-[(4-methyl-1-piperazinyl)sulfonyl]-phenyl}-1H-thieno[2,3-c]pyrazole-5-carboxamide]	40	25000	
Cc1nn(C2CCCCC2)c2sc(C(=O)N[C@H]3CC[C@H](C(=O)N4CCOCC4)CC3)cc12 [Example 236, 1-Cyclohexyl-3-methyl-N-[4-(4-morpholinylcarbonyl)cyclohexyl]-1H-thieno[2,3-c]pyrazole-5-carboxamide]	20	2700	
Cc1nn(C2CCCCC2)c2sc(C(=O)N[C@H]3CC[C@H](CO)CC3)cc12 [Example 206, 1-Cyclohexyl-N-[4-(hydroxymethyl)cyclohexyl]-3-methyl-1H-thieno[2,3-c]pyrazole-5-carboxamide]	50	3800	
Cc1nn(C2CCCCC2)c2sc(C(=O)Nc3ccc(N4CCN(C)CC4)cc3)cc12 [Example 107, 1-Cyclohexyl-3-methyl-N-[4-(4-methyl-1-piperazinyl)phenyl]-1H-thieno[2,3-c]pyrazole-5-carboxamide methanesulfonate]			IC50 [1, 4]: 17 nM; IC50 ([2]; methanesulfonate): 2000 nM
Cc1nn(C2CCCCC2)c2sc(C(=O)N[C@H]3CC[C@H](N4C[C@@H](C)O[C@@H](C)C4)CC3)cc12 [Example 177, 1-Cyclohexyl-N-{trans-4-[(2R,6S)-2,6-dimethylmorpholinyl]-cyclohexyl}-3-methyl-1H-thieno[2,3-c]pyrazole-5-carboxamide]	13	1600	
Cc1nn(C2CCCCC2)c2sc(C(=O)N[C@H]3CC[C@H](N4CCOC4=O)CC3)cc12 [Example 270, 1-Cyclohexyl-3-methyl-N-[trans-4-(2-oxo-1,3-oxazolidin-3-yl)-cyclohexyl]-1H-thieno[2,3-c]pyrazole-5-carboxamide]	15	1800	
Cc1nn(C2CCCCC2)c2sc(C(=O)Nc3ccc(N4CCCN(C)CC4)c(F)c3)cc12 [Example 191, 1-Cyclohexyl-N-[3-fluoro-4-(4-methyl-1,4-diazepam-1-yl)phenyl]-3-methyl-1H-thieno[2,3-c]pyrazole-5-carboxamide hemifumarate]		980	IC50 [1]: 8.9 nM
Cc1nn(C2CCCCC2)c2sc(C(=O)Nc3ccc(N4CCC(O)CC4)cc3)cc12 [Example 367, 1-Cyclohexyl-N-[4-(4-hydroxy-1-piperidinyl)phenyl]-3-methyl-1H-thieno[2,3-c]pyrazole-5-carboxamide methanesulfonate]			IC50 [1, 4]: 20 nM
Cc1nn(C2CCCCC2)c2sc(C(=O)N[C@H]3CCN(C(=O)N(C)C)C3)cc12 [Example 246, 1-Cyclohexyl-N-{(3S)-1-[(dimethylamino)carbonyl]pyrrolidinyl}-3-methyl-1H-thieno[2,3-c]pyrazole-5-carboxamide HCl salt]	51		
Cc1nn(C2CCCCC2)c2sc(C(=O)Nc3ccc(N4CCC(O)CC4)c(F)c3)cc12 [Example 365, 1-cyclohexyl-N-[3-fluoro-4-(4-hydroxy-1-piperidinyl)phenyl]-3-methyl-1H-thieno[2,3-c]pyrazole-5-carboxamide dimethanesulfonate]			IC50 ([1]; PDE 7 fraction from MOLT-4 cells, 0.064 μM cAMP, 10 μM rolipram, 2 hours at 25° C., dimethanesulfonate): 41 nM
Cc1nn(C2CCCCC2)c2sc(C(=O)Nc3ccc(N4CCC(O)CC4)cc3)cc12 [Example 114]	21		
CNC(=O)[C@H]1CC[C@H](NC(=O)c2cc3c(C)nn(C4CCCCC4)c3s2)CC1 [Example 237, 1-Cyclohexyl-3-methyl-N-{4-[(methylamino)carbonyl]cyclohexyl}-1H-thieno[2,3-c]pyrazole-5-carboxamide]	7.8		
Cc1nn(C2CCCCC2)c2sc(C(=O)Nc3ccc(N4CCC(O)CC4)c(F)c3)cc12 [Example 366, 1-Cyclohexyl-N-[3-fluoro-4-(4-hydroxy-1-piperidinyl)phenyl]-3-methyl-1H-thieno[2,3-c]pyrazole-5-carboxamide p-toluenesulfonate]			IC50 [1, 5]: 49 nM
Cc1nn(C2CCCCC2)c2sc(C(=O)NC3CCN(S(=O)(=O)N(C)C)CC3)cc12 [Example 240, 1-Cyclohexyl-N-{1-[(dimethylamino)sulfonyl]-4-piperidinyl}-3-methyl-1H-thieno[2,3-c]pyrazole-5-carboxamide]	41		
Cc1nn(C2CCCCC2)c2sc(C(=O)Nc3ccc(S(=O)(=O)N4CCN(CCO)CC4)cc3)cc12 [Example 79, 1-Cyclohexyl-N-(4-{[4-(2-hydroethyl)-1-piperazinyl]sulfonyl}-phenyl)-3-methyl-1H-thieno[2,3-c]pyrazole-5-carboxamide]	60		
Cc1nn(C2CCCCC2)c2sc(C(=O)Nc3ccc(N4CCC(O)CC4)cc3)cc12 [Example 368, 1-Cyclohexyl-N-[4-(4-hydroxy-1-piperidinyl)phenyl]-3-methyl-1H-thieno[2,3-c]pyrazole-5-carboxamide p-toluenesulfonate]			IC50 [1, 5]: 26 nM
Cc1nn(C2CCCCC2)c2sc(C(=O)Nc3ccc(N4CCC(O)CC4)c(F)c3)cc12 [Example 159, 1-Cyclohexyl-N-[3-fluoro-4-(4-hydroxy-1-piperidinyl)phenyl]-3-methyl-1H-thieno[2,3-c]pyrazole-5-carboxamide]	35		
Cc1nn(C2CCCCC2)c2sc(C(=O)Nc3ccc(CN4CCOCC4)nc3)cc12 [Example 412, 1-Cyclohexyl-3-methyl-N-[6-(4-morpholinylmethyl)-3-pyridinyl]-1H-thieno[2,3-c]pyrazole-5-carboxamide methanesulfonate]	43		
Cc1nn(C2CCCCC2)c2sc(C(=O)N[C@@H]3CCN(C(=O)N(C)C)C3)cc12 [Example 323, 1-Cyclohexyl-N-{(3R)-1-[(dimethylamino)carbonyl]pyrrolidinyl}-3-methyl-1H-thieno[2,3-c]pyrazole-5-carboxamide HCl salt]	71		
